In the supplement of paper PMC10307832:

Tests used:
Experiment in all cases: relative viability (nuclei count vs DMSO), 5 days (fraction); higher = more cells survive
[1] = compound: C=CCNC1=C2C[C@@H](C)C[C@H](OC)[C@H](O)[C@@H](C)/C=C(\C)[C@H](OC(N)=O)[C@@H](OC)/C=C\C=C(/C)C(=O)NC(=CC1=O)C2=O [17-AAG] + CC1(C)CCC(c2ccc(Cl)cc2)=C(CN2CCN(c3ccc(C(=O)NS(=O)(=O)c4ccc(N[C@H](CCN5CCOCC5)CSc5ccccc5)c(S(=O)(=O)C(F)(F)F)c4)cc3)CC2)C1 [Navitoclax] (partner 0.5 µM)
How it was run: (§1)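 The day after seeding in 1536-well plates, lung cancer cell lines were treated by pin tool with a single drug, or with a fixed anchor-drug dose together with five library-drug doses (not always all listed) in √10 steps. After 5 days, a combined fix-and-stain solution (final 0.05% Triton X-100, 1% formaldehyde, 1 ug/ml Hoechst) was added. Nuclei counted on 4× images gave relative viability as treated counts over vehicle counts, reported as the median of duplicate plates.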

[2] = compound: C=CCNC1=C2C[C@@H](C)C[C@H](OC)[C@H](O)[C@@H](C)/C=C(\C)[C@H](OC(N)=O)[C@@H](OC)/C=C\C=C(/C)C(=O)NC(=CC1=O)C2=O [17-AAG] + CCNC(=O)c1noc(-c2cc(C(C)C)c(O)cc2O)c1-c1ccc(CN2CCOCC2)cc1 [Luminespib] (partner 0.01 µM)
How it was run: as §1

[3] = compound: C=CCNC1=C2C[C@@H](C)C[C@H](OC)[C@H](O)[C@@H](C)/C=C(\C)[C@H](OC(N)=O)[C@@H](OC)/C=C\C=C(/C)C(=O)NC(=CC1=O)C2=O [17-AAG] + COc1cc2c(Oc3ccc(NC(=O)C4(C(=O)Nc5ccc(F)cc5)CC4)cc3F)ccnc2cc1OCCCN1CCOCC1 [Foretinib] (partner 0.25 µM)
How it was run: as §1

[4] = compound: C=CCNC1=C2C[C@@H](C)C[C@H](OC)[C@H](O)[C@@H](C)/C=C(\C)[C@H](OC(N)=O)[C@@H](OC)/C=C\C=C(/C)C(=O)NC(=CC1=O)C2=O [17-AAG] + C[C@]1(O)C[C@@H](c2nc(-c3ccc4ccc(-c5ccccc5)nc4c3)c3c(N)nccn32)C1 [Linsitinib] (partner 1 µM)
How it was run: as §1

Cell Line	relative viability ([1]; first compound 0.00128 µM)	relative viability ([1]; first compound 0.004048 µM)	relative viability ([1]; first compound 0.0128 µM)	relative viability ([1]; first compound 0.04048 µM)	relative viability ([1]; first compound 0.128 µM)	relative viability ([2]; first compound 0.00128 µM)	relative viability ([2]; first compound 0.004048 µM)	relative viability ([2]; first compound 0.0128 µM)	relative viability ([2]; first compound 0.04048 µM)	relative viability ([2]; first compound 0.128 µM)	relative viability ([3]; first compound 0.00128 µM)	relative viability ([3]; first compound 0.004048 µM)	relative viability ([3]; first compound 0.0128 µM)	relative viability ([3]; first compound 0.04048 µM)	relative viability ([3]; first compound 0.128 µM)	relative viability ([4]; first compound 0.00128 µM)	relative viability ([4]; first compound 0.004048 µM)	relative viability ([4]; first compound 0.0128 µM)	relative viability ([4]; first compound 0.04048 µM)	relative viability ([4]; first compound 0.128 µM)
LK-2	1.11	0.97	0.619	0.285	0.171	0.201	0.162	0.181	0.17	0.177	1.09	1.11	1.21	1.26	0.25	0.575	0.463	0.615	0.479	0.136
LOU-NH91	0.608	0.525	0.32	0.332	0.297	0.345	0.239	0.282	0.3	0.291	0.868	0.727	0.633	0.36	0.279	0.874	0.678	0.587	0.478	0.311
LU99A	0.817	0.821	0.921	0.271	0.132	0.239	0.201	0.213	0.169	0.146	0.931	0.783	0.719	0.222	0.213	0.484	0.671	0.449	0.24	0.174
LXF-289	0.995	0.907	0.891	0.536	0.184	0.628	0.556	0.377	0.121	0.0993	1.05	0.961	0.879	0.381	0.152	0.964	0.954	0.924	0.52	0.179
NCI-H23	0.922	0.836	0.688	0.167	0.125	0.242	0.208	0.19	0.206	0.202	0.906	1.04	0.842	0.641	0.182	0.554	0.511	0.486	0.174	0.157
NCI-H322M	1.15	1.18	1.26	0.573	0.564	0.663	0.274	0.285	0.274	0.289	0.971	1.04	0.577	0.306	0.323	1.04	0.938	0.99	0.484	0.334
NCI-H441	0.527	0.335	0.157	0.262	0.131	0.278	0.197	0.196	0.181	0.17	0.903	0.862	0.39	0.211	0.0805	0.679	0.661	0.276	0.174	0.0829
NCI-H460	0.986	1.08	0.0303	0.0146	0.0215	0.0254	0.0275	0.0254	0.0299	0.023	0.983	0.907	0.063	0.0391	0.0257	0.771	0.0998	0.0141	0.0124	0.009
NCI-H520	1.09	0.836	1.03	0.19	0.161	0.236	0.22	0.227	0.202	0.188	0.763	0.56	0.702	0.169	0.142	0.987	0.856	0.728	0.144	0.122
NCI-H596	1.02	0.91	0.908	0.834	0.518	1.08	0.865	0.996	0.548	0.414	0.923	0.749	0.923	0.698	0.397	1.12	0.93	0.943	0.82	0.783
NCI-H647	1.23	1.01	0.11	0.104	0.0816	0.128	0.122	0.098	0.109	0.0989	1.1	1.16	0.863	0.117	0.0874	1.16	0.596	0.18	0.118	0.074
NCI-H727	0.426	0.455	0.214	0.206	0.226	0.607	0.245	0.331	0.316	0.284	0.834	0.978	0.636	0.41	0.356	0.312	0.252	0.176	0.179	0.22
NCI-H838	1.15	1.12	1.07	0.165	0.166	0.192	0.196	0.151	0.157	0.12	0.965	0.977	0.667	0.178	0.158	0.942	0.97	0.756	0.17	0.142
NCI-H1355	0.927	0.944	0.958	0.449	0.373	0.649	0.685	0.457	0.337	0.18	0.938	0.97	0.91	0.843	0.328	0.946	0.747	0.776	0.725	0.286
NCI-H1395	1.03	1.29	0.698	0.458	0.344	0.638	0.535	0.329	0.359	0.331	0.963	0.988	0.843	0.396	0.318	1.12	1.1	0.705	0.469	0.383
NCI-H1437	1.11	0.939	0.936	0.162	0.132	1.09	0.818	0.631	0.206	0.19	1.21	1.22	1.09	0.259	0.193	0.995	0.788	0.787	0.128	0.112
NCI-H1651	1.05	0.882	1.01	0.214	0.148	0.884	0.774	0.394	0.213	0.186	0.788	0.664	0.423	0.15	0.161	1.09	1.01	0.975	0.227	0.177
NCI-H1666	0.958	0.699	0.277	0.314	0.236	1	0.86	0.474	0.296	0.342	1.04	0.963	0.587	0.383	0.341	0.764	0.554	0.27	0.253	0.224
NCI-H1734	0.871	0.811	0.756	0.24	0.114	0.197	0.18	0.167	0.143	0.16	0.895	0.951	0.856	0.282	0.18	0.87	0.838	0.878	0.308	0.18
NCI-H1755	1.01	1	0.957	0.8	0.315	0.479	0.444	0.364	0.273	0.223	0.92	0.898	0.888	0.302	0.309	1.03	1.01	0.934	0.825	0.39
NCI-H1793	0.346	0.323	0.228	0.192	0.151	0.191	0.149	0.136	0.16	0.169	0.63	0.622	0.442	0.165	0.161	0.824	0.712	0.51	0.236	0.153
NCI-H1915	0.763	0.754	0.797	0.771	0.409	0.682	0.659	0.548	0.418	0.0942	1.09	1.06	1.12	1.06	0.271	1.05	1.08	1.14	1.07	0.83
NCI-H1944	1.05	1.05	1.02	0.948	0.372	0.595	0.603	0.565	0.219	0.151	0.974	0.896	0.735	0.216	0.175	1.25	1.22	1.16	0.872	0.319
NCI-H1975	1.23	0.928	0.453	0.186	0.145	0.198	0.175	0.14	0.176	0.139	1.02	0.904	0.288	0.136	0.118	1.03	0.725	0.31	0.164	0.139
NCI-H1993	0.904	0.933	0.529	0.564	0.441	0.919	0.625	0.516	0.273	0.423	0.83	0.846	0.826	0.516	0.466	0.764	0.718	0.711	0.573	0.5
NCI-H2009	1.1	1.09	1.07	0.884	0.369	0.983	0.983	0.871	0.354	0.0842	1.23	1.14	1.17	0.85	0.138	1.14	1.2	1.01	0.775	0.328
NCI-H2023	0.989	0.867	0.641	0.11	0.112	0.52	0.25	0.228	0.0785	0.0689	0.93	0.672	0.297	0.0761	0.0537	0.595	0.501	0.103	0.117	0.0914
NCI-H2085	1.08	1.11	1.18	1.11	0.808	0.521	0.447	0.462	0.345	0.314	0.92	0.834	1.06	0.844	0.563	0.9	0.844	1.02	0.849	0.533
NCI-H2087	0.96	0.754	0.284	0.202	0.195	0.17	0.158	0.159	0.131	0.0988	1.08	0.855	0.183	0.137	0.113	0.886	0.797	0.344	0.248	0.197
NCI-H2126	0.864	0.845	0.878	0.796	0.381	0.681	0.499	0.261	0.243	0.292	1.29	1.19	1.05	0.908	0.236	0.753	0.688	0.776	0.692	0.373
